Experimental data taken from paper PMC10252594 (Cancers, 2023).

Tests used:
LNCaP = system: LNCaP; parameters: method as in PMID 34681843; conditions: AR positive, three days, MTS; cited from earlier work
LAPC-4 cells = assay: LAPC-4 cell viability proliferation and combination index assays (MTS, 6 days); format: cell-based; conditions: Homo sapiens, LAPC4, 144 h, LAPC-4, six days of treatment; read-out: IC50, mean of three experiments (Figure 2A)
[1] = Tolerated dose of RM-581 in mice (dose escalation); format: in vivo
Protocol: It is important to note that animal death is not an accepted endpoint for CCAC. RM-581 was first dissolved in DMSO, and PG was added to obtain a final 8% concentration of co-solvent DMSO. The injected volume was 0.1 mL, but the number of injections ranged from 1, 2, or 3 to obtain the expected dose. Each week for […] consecutive weeks, an increased dose (60, 120, 240, 360, 480, 600, or 720 mg/kg) of RM-581 was administered by gavage (PO), and the mice were weighed and observed for 7 days to notice any signs of toxicity. The protocol was applied to four groups (Gr) divided as follows: Gr-1: 5 female mice received the vehicle only; Gr-2: 5 male mice received the vehicle only; Gr-3: 5 female mice treated with RM-581; and Gr-4: 5 male mice treated with RM-581.

[2] = Toxicity during LAPC-4 xenograft protocol (signs, body weight, histopathology); format: in vivo, mice; conditions: 28 days
Excerpt: Tissue samples from xenograft experiments were fixed in neutral buffered 10% formalin and processed for routine paraffin embedding. Tissue sections (3 µm) were stained with hematoxylin and eosin (HE) and histologically observed by an independent pathologist. Digital images at 20× magnification of each slide were obtained using the slide scanner NanoZoomer 2.0-HT (Hamamatsu, Bridgewater, NJ, USA). Whole-section images were visualized using the software NDP View (Hamamatsu, Bridgewater, NJ, USA).

LAPC-4 xenografts = assay: Cholesterol/lipid panel in plasma (method B, hospital laboratory); format: in vivo, mice
Protocol: Total cholesterol, triglycerides, cholesterol-HDL (high-density lipoproteins), cholesterol-LDL (low-density lipoproteins), cholesterol non-HDL, and the ratio of total cholesterol/cholesterol-HDL were determined in the plasma of mice treated PO with RM-581 (3, 10, and 30 mg/kg) or abiraterone acetate (60 mg/kg). Analyses were performed at the CHU de Québec/L’Enfant-Jésus (Medical Hospital Laboratory; Project N°: 9014625056) using a Cobas Lipid Panel from Roche.

22Rv1 = assay: PCa cell viability proliferation screening (MTS), 22Rv1; format: cell-based; conditions: Homo sapiens, 72 h, 22Rv1, AR positive, three days
Protocol: VCaP (4 × 10^4 cells/well) were seeded in 96-well plates in DMEM media supplemented with 10% fetal bovine serum (FBS), penicillin, streptomycin, and sodium pyruvate. 22Rv1 cells (2 × 10^3 cells/well) and LAPC-4 cells (6 × 10^3 cells/well) were seeded in 96-well plates in RPMI media supplemented with 10% FBS, penicillin, streptomycin, and sodium pyruvate. The cells were incubated at 37 °C in a 5% CO2 humidified atmosphere for 24 h before treatment with multiple concentrations of RM-581 dissolved in dimethyl sulfoxide (DMSO). The concentrations used were between 0.01 μM and 50 μM. Treatment lasted for 3 days for all the cell lines except VCaP cells, which were treated for 7 days due to slower proliferation rates. At the end of the assay, 20 μL of MTS (Cell Titer 96 Aqueous, Promega, Nepean, ON, Canada) were added to each well, and the mixture was incubated for 4 h at 37 °C. The plates were subsequently analyzed at 490 nm using a Tecan M-200 microplate reader (Männedorf, Switzerland).

C#C[C@]1(O)CC[C@H]2[C@@H]3CCc4cc(OC)c(N5CCN(C(=O)[C@@H]6CCCN6C(=O)c6ccc7ccccc7n6)CC5)cc4[C@H]3CC[C@@]21C [RM-581]
IC50 (LNCaP): 1200 nM
IC50 (LAPC-4 cells): 430 ± 130 nM
therapeutic index ([1]; assuming effective dose of 30 mg/kg): > 24
signs of toxicity, dose escalation ([1]; normal male and female mice, 60, 120, 240, 360, 480, 600 and 720 mg/kg PO weekly): no signs of toxicity
body weight, treated vs control groups ([1]; normal mice, dose escalation up to 720 mg/kg PO, 7 weeks): no significant body weight difference
signs of toxicity during xenograft protocol ([2]; nude mice, 3, 10, 30 mg/kg PO): no signs of apparent toxicity
body weight of treated vs untreated mice ([2]; nude mice): no significant difference
histology of liver, kidney and prostate (HE) ([2]; nude mice): tissue morphology was not affected
T-CHOL (total cholesterol), plasma (LAPC-4 xenografts; 10 mg/kg PO, NS vs CTL): 1182 ± 338 (NS) µg/mL
plasma triglycerides, cholesterol-HDL, -LDL, non-HDL, ratio total cholesterol/cholesterol-HDL vs control (LAPC-4 xenografts; Figure S3): no significant difference
IC50 (22Rv1): 1380 nM
